Converted amounts (≈) assume the structure as drawn.
| Compound | solubility (25 °C) [mM] | further results |
| --- | --- | --- |
| FC(F)=C(F)F | 1.58 (≈ 158 µg/mL) |  |
| ClCCl | 153 (≈ 13000 µg/mL) |  |
| CF |  | solubility (20 °C): 667 mM (≈ 22700 µg/mL) |
| FC(F)(F)F | 0.214 (≈ 18.8 µg/mL) |  |
| ClC(Cl)(Cl)Cl | 5.16 (≈ 793 µg/mL) |  |
| BrC(Br)Br | 13.8 (≈ 3490 µg/mL) |  |
| FC(F)F | 58.4 (≈ 4090 µg/mL) |  |
| Clc1ccccc1 | 4.42 (≈ 498 µg/mL) |  |
| FC(F)(F)C(F)(F)Cl | 0.382 (≈ 59 µg/mL) |  |
| FC(Cl)Cl | 183 (≈ 18800 µg/mL) |  |
| BrC=CBr | 34.7 (≈ 6440 µg/mL) |  |
| FC(F)(F)Br | 2.15 (≈ 320 µg/mL) |  |
| C=C(F)F | 197 (≈ 12600 µg/mL) |  |
| CI |  | solubility (20 °C): 97.2 mM (≈ 13800 µg/mL) |
| FC(F)Cl | 32 (≈ 2770 µg/mL) |  |
| CBr | 160 (≈ 15200 µg/mL) |  |
| CC(F)F |  | solubility (21 °C): 48.5 mM (≈ 3200 µg/mL) |
| CC(Cl)CCl (stereo not drawn) | 24.8 (≈ 2800 µg/mL) |  |

From the OPERA property sets (Mansouri et al. 2018)
